In BindingDB's records for doi:10.1021/jm00113a025 (Merck Sharp and Dohme Research Laboratories, 1991):

Target: T1, Dimer of Gag-Pol polyprotein [489-587] (Human immunodeficiency virus 1, UniProt P04585)
T1 construct: 489-587
Assay: Protease Inhibition Assay
Settings: pH 5.5; 30 °C
Protocol: Sensitivity of HIV-1 protease activity to protease inhibitors was determined by a peptide substrate cleavage assay. Protease products were analyzed on a reverse-phase high-pressure liquid chromatograph.

Compound	IC50 [nM]
CCC(C)[C@H](NC(=O)[C@H](Cc1ccccc1)C[C@H](O)[C@H](Cc1ccccc1)NC(=O)OC(C)(C)C)C(=O)N[C@@H](Cc1ccccc1)C(N)=O (stereo partly drawn) [tert-butyl N-[(2S,3S,5R)-5-benzyl-5-{[(1S,2S)-1-{[(1S)-1-carbamoyl-2-phenylethyl]carbamoyl}-2-methylbutyl]carbamoyl}-3-hydroxy-1-phenylpentan-2-yl]carbamate]	0.25
CC(C)C[C@H](NC(=O)[C@H](Cc1ccccc1)C[C@H](O)[C@H](Cc1ccccc1)NC(=O)OC(C)(C)C)C(=O)N[C@@H](Cc1ccccc1)C(N)=O [Hydroxyethylene dipeptide isostere]	0.6
